Earlier results, collected in patent US20200338088A1, “Methods for Treating Neutrophilic Dermatoses with SYK Inhibitors” (Rush University Medical Center, priority 2018, published 2020).

System: rat collagen-induced arthritis model
Conditions: daily oral dose of 10 mg/kg (10 μg/g), after 7 days

c1cn2cc(-c3ccc4cn[nH]c4c3)nc(Nc3ccc(N4CCOCC4)cc3)c2n1 [GS-9973, 6-(1H-indazol-6-yl)-N-(4-morpholin-4-ylphenyl)imidazo[1,2-a]pyrazin-8-amine]
ankle inflammation: significantly inhibited ankle inflammation
